Experimental data reported in BindingDB's records for doi:10.1021/jm981078h (Leiden University, 1999).

Biological target: Asialoglycoprotein receptor 1 (Rattus norvegicus) (UniProt P02706)
Test: Affinity tested by in vitro competition assay of [125I]ASOR binding to parenchymal rat liver cells

Sequence of Asialoglycoprotein receptor 1 (Rattus norvegicus) (P02706 whole entry, looked up): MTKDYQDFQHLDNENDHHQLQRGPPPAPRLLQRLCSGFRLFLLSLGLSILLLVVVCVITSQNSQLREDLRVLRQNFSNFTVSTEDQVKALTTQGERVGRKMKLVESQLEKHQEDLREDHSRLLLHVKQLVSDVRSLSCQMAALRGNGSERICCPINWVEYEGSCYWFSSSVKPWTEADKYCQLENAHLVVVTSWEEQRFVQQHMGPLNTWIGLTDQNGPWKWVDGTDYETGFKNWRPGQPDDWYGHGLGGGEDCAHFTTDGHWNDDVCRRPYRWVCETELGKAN

O=C(CCCCO[C@@H]1O[C@@H](CO)[C@H](O)[C@H](O)[C@@H]1O)NCC(=O)NCCCC(=O)OCC(COC(=O)CCCNC(=O)CNC(=O)CCCCO[C@@H]1O[C@@H](CO)[C@H](O)[C@H](O)[C@@H]1O)(COC(=O)CCCNC(=O)CNC(=O)CCCCO[C@@H]1O[C@@H](CO)[C@H](O)[C@H](O)[C@@H]1O)NC(=O)CNC(=O)OCc1ccccc1 [Galactoside analogue]
Ki: 93 nM

O=C(CCCCO[C@@H]1O[C@@H](CO)[C@H](O)[C@H](O)[C@@H]1O)NCCCNC(=O)CCOCC(COCCC(=O)NCCCNC(=O)CCCCO[C@@H]1O[C@@H](CO)[C@H](O)[C@H](O)[C@@H]1O)(COCCC(=O)NCCCNC(=O)CCCCO[C@@H]1O[C@@H](CO)[C@H](O)[C@H](O)[C@@H]1O)NC(=O)CNC(=O)OCc1ccccc1 [Galactoside analogue]
Ki: 93 nM

CC(C)CCCC(C)[C@H]1CC[C@H]2[C@@H]3CC=C4C[C@@H](OC(=O)CNC(=O)CCCCC(=O)NCC(=O)NC(COCOCCOCCOCCOCCO[C@@H]5O[C@@H](CO)[C@H](O)[C@H](O)[C@@H]5O)(COCOCCOCCOCCOCCO[C@@H]5O[C@@H](CO)[C@H](O)[C@H](O)[C@@H]5O)COCOCCOCCOCCOCCO[C@@H]5O[C@@H](CO)[C@H](O)[C@H](O)[C@@H]5O)CC[C@]4(C)[C@H]3CC[C@]12C (stereo partly drawn) [TG(20)C-Galactoside analogue]
Ki: 200 nM
